This note sets out measurements from ChEMBL document CHEMBL1201862, “PubChem BioAssay data set” (2004).

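Growth conditions: 96-well plates. Treatment: test compound, 48 hours, 5 concentrations. Analysis: linear interpolation between bracketing concentrations; unreached endpoints set to highest concentration. Abbreviation: GI50, concentration required for 50% inhibition of growth.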 Calls of active or inactive are those of the source. No stated cut-off is given here; in the data, active = GI50 up to about 1.1 µM and inactive = higher.

Some test systems named below: CCRF-CEM; MOLT-4; SR; MDA-MB-435; NCI-H522; UO-31; A549; SNB-19; SW-620; HCC 2998; CAKI-1; RXF 393; SN12C; A498; OVCAR-8; LOX IMVI; EKVX; NCI-H23; SF-268; OVCAR-5.
Holding throughout (experiment): NCI-60 cell line screen, 48 h

As for `Oc1cc(Br)cc2cc(Br)cnc12`, the GI50 in the assay with CCRF-CEM was 1.83 µM (inactive); in the assay with MOLT-4 it was 2.55 µM (inactive); with SR, 1.26 µM (inactive); with MDA-MB-435, 3.44 µM (inactive); in the assay on NCI-H522, 2.3 µM (inactive); with UO-31, 2.99 µM (inactive). The GI50 in the assay on A549 was 3.29 µM (inactive); in the assay with SNB-19 it was 3.33 µM (inactive); in the assay on SW-620, 2.24 µM (inactive); with HCC 2998 it was 17.1 µM (inactive); in the assay with CAKI-1 it was 8.55 µM (inactive); in the assay on RXF 393, 1.6 µM (inactive). For the same molecule, the GI50 in the assay with SN12C was 3.62 µM (inactive); in the assay with A498, 3.4 µM (inactive); in the assay with OVCAR-8, 2.96 µM (inactive); in the assay with LOX IMVI, 0.661 µM (active); in the assay with EKVX it was 3.85 µM (inactive); in the assay on NCI-H23, 4.95 µM (inactive). Moreover, the GI50 with SF-268 is 1.1 µM (active).
For the molecule `COc1cccc(/C=N/NC(=O)CSCC(=O)N/N=C/c2cccc(OC)c2OC)c1OC`, the GI50 in the assay on MOLT-4, with SR, in the assay with MDA-MB-435, in the assay on NCI-H522, in the assay with UO-31 and in the assay with A549 was > 100 µM (inactive) in each case. Besides, the GI50 with SNB-19, with OVCAR-5, with SW-620, in the assay on HCC 2998, in the assay with CAKI-1 and with RXF 393 was > 100 µM (inactive) in each case. Moreover, the GI50 in the assay with SN12C was > 100 µM (inactive); with A498, 51.2 µM (inactive); with OVCAR-8, > 100 µM (inactive); with EKVX, > 100 µM (inactive); in the assay on NCI-H23 it was > 100 µM (inactive); in the assay on SF-268, > 100 µM (inactive).
With `CC(C)=CC(=O)O[C@@H]1CC(C)(C)CC2C3=CCC4[C@]56CC[C@](O)(OC5)C(C)(C)C6CC[C@@]4(C)C3(C)CC[C@]21C(=O)O` (stereo not given in full), the GI50 in the assay with CCRF-CEM was 41.7 µM (inactive); with MOLT-4, 55.2 µM (inactive); in the assay on SR, 61 µM (inactive); with MDA-MB-435, > 100 µM (inactive); in the assay on NCI-H522, 51.6 µM (inactive); with A549 it was 33.7 µM (inactive). The GI50 is 54.3 µM (inactive) in the assay on SNB-19; > 100 µM (inactive) in the assay with OVCAR-5; > 100 µM (inactive) in the assay with SW-620; > 100 µM (inactive) in the assay on HCC 2998; > 100 µM (inactive) in the assay on CAKI-1; > 100 µM (inactive) in the assay on RXF 393. Further, the GI50 is 53.2 µM (inactive) in the assay with SN12C; > 100 µM (inactive) in the assay on A498; 59.6 µM (inactive) with OVCAR-8; 17.1 µM (inactive) in the assay with LOX IMVI; > 100 µM (inactive) in the assay on EKVX; 26.1 µM (inactive) in the assay with NCI-H23. Moreover, in the assay with SF-268, the GI50 was 74.1 µM (inactive).
For the molecule `O=C1c2ccc3c4ccc5c6c(ccc(c7ccc(c2c37)C(=O)N1CCN1CCCCC1)c64)C(=O)N(CCN1CCCCC1)C5=O`, the GI50 with CCRF-CEM, in the assay on MOLT-4, with SR, with MDA-MB-435, with UO-31 and in the assay on A549 was > 100 µM (inactive) each time. The GI50 in the assay on SNB-19, in the assay with OVCAR-5, with SW-620, in the assay with HCC 2998, in the assay on CAKI-1 and with RXF 393 was > 100 µM (inactive) each time. The GI50 with SN12C, in the assay with A498, in the assay on OVCAR-8, in the assay with LOX IMVI, with EKVX and in the assay on NCI-H23 was > 100 µM (inactive) each time. Moreover, the GI50 in the assay on SF-268 is > 100 µM (inactive).
